Laboratory results published in patent US12012467B2, “Small molecule DCN1 inhibitors and therapeutic methods using the same” (THE REGENTS OF THE UNIVERSITY OF MICHIGAN, priority 2017, dated 2024).
Where a name gives a salt, the structure may show the parent alone. Read-outs that look alike come from different tables or passages of the source. Square brackets hold non-standard residues; d marks the D form. Peptide text beside a SMILES is read from it. * marks the point of attachment. Ala(6-iPr-benzothiazol-2-yl) = CC(C)c1ccc2nc(C[C@H](N)C(=O)O)sc2c1; Gly(piperidin-4-yl) = N[C@H](C(=O)O)C1CCNCC1; 2Nal = N[C@@H](Cc1ccc2ccccc2c1)C(=O)O; Cyclopropanecarbonyl = O=C(C1CC1)*; Isobutyryl = CC(C)C(=O)*; Propionyl = CCC(=O)*

Tests used:
NRF2 = experiment: Western blotting of NRF2 and NRF2-regulated proteins in THLE2 liver cell line; type: cell-based; settings: THLE2 liver cell line; for accumulation of NRF2 and NQ01 protein: 10 μM, different time points; for abundance of NRF2 protein (cullin 3 substrate): dose-range, 24 h, western blotting
Experimental: (§1) A key function of cullin neddylation is to control E3 ubiquitin ligase activity of the cullin complex, which in turn regulates protein turnover in cells. DI-591 (Example 58) was evaluated for its effect on neddylation of 5 different cullins in the THLE2 liver cell line with the data shown in FIG. 1. Immortalized THLE2 liver cell line was treated by a dose-range of DCN1 inhibitor DI-591 or a dose-range of MLN4924 for 24 h. The protein levels of neddylated- and un-neddylated-cullin family proteins and several well-known substrates of cullins were examined by western blotting analysis. GAPDH was used as a loading control. […] Immunohistochemical data confirmed the increased NRF2 protein by Example 58 in liver cells.
NRF2 is a transcriptional factor and a master regulator of antioxidant responses, regulating numerous detoxifying and antioxidant genes, such as the phase II detoxification enzymes heme oxygenase (HO1) and NAD(P)H:quinone oxidoreductase-1 (NQ01) (36). DI-591 (Example 58) was compared to dimethyl fumarate (DMF) for their effect on NRF2 and NQ01 protein levels in the THLE2 liver cell line with DI-591DD included as a control with the data shown in FIG. 3. THLE2 liver cell line was treated by DI-591 at 10 μM, DI-591DD at 10 μM or DMF at 10 μM for different time points.
(§2) Immortalized liver THLE2 (ATCC® CRL-2706™) cell lines was purchased from the ATCC (Rockville, MD). The cell line was maintained in BEGM Bronchial Epithelial Cell Growth Medium from Lonza/Clonetics Corporation (CC3170, Walkersville, MD) supplemented with 10% FBS and pen-strep at 37° C. in a humidified incubator with 5% CO2. Esophageal cancer KYSE140 cell line (ACC 348) was purchased from DSMZ (Braunschweig, Germany). The cell line was maintained RPMI1640 supplemented with 10% FBS and pen-strep at 37° C. in a humidified incubator with 5% CO2.
(§3) Treated cells were lysed by RIPA buffer supplemented with protease inhibitor. The expression level of indicated proteins was examined by western blotting analysis. GAPDH was used as a loading control. Antibodies were purchased: Cullin 1 (sc-11384), Cullin2 (sc-10781), Cullin5 (sc-13014) and Cullin7 (sc-134565) from Santa Cruz Biotech. (Santa Cruz, CA); Cullin 4A (PA5-14542), Cullin 4B (PA5-35239), Cullin9 (PA5-20277), DCN2 (DCUN1D2, PA5-31607) and DCN3 (DCUN1D3, PA5-44000) from ThermoFisher Scientific (Wayne, MI); Cullin 3 (2759), NRF2 (12721), HO-1 (70081), NQ01 (3187), Cyclin E (4129), Bim (2819), Keap1 (8047) and UBC12 (4913) from Cell Signaling Technology (Boston, MA); DCN1 (GWB-E3D700) from GenWay Biotech (San Diego, CA). Results are representative of three independent experiments.

[1] = tested on: mRNA of NRF2, NQ01 and HO-1; experiment: qRT-PCR of NRF2 and NRF2-regulated genes in THLE2 liver cell line; type: cell-based; settings: 10 μM, different time points
Text: FIG. 4 provides qRT-PCR analysis of mRNA levels of NRF2 and NRF2-regulated genes in the THLE2 liver cell line. […] The relative mRNA levels of NRF2, NQ01 and HO-1 were examined by quantitative real-time RT-PCR assay.

Cyclin E, BimEL, CDT1 = experiment: Western blotting of Cul-1 and Cul-4A substrates in THLE2 liver cell line; type: cell-based; settings: dose-range, 24 h
Experimental: as §1, §2, §3

neddylation of cullin 1 = experiment: Western blotting of neddylated and un-neddylated cullin 1 in THLE2 liver cell line; type: cell-based; settings: DI-591 at 10 μM or MLN4924 at 0.3 μM, 5 minutes to 24 hours
Experimental: (§4) DI-591 (Example 58) was further compared to MLN4924 for their ability to inhibit neddylation of cullin 1 and cullin 3 in the THLE2 liver cell line with the data shown in FIG. 2. THLE2 liver cell line was treated by DI-591 at 10 μM or MLN4924 at 0.3 μM for 5 minutes (5m), 30 minutes (30 m), 2 hours (2h) and 24 hours (24h). […] In comparison, MLN4924 inhibits the neddylation of both cullin 1 and 3.
as §2
(§5) Treated cells were lysed by RIPA buffer supplemented with protease inhibitor. The expression level of indicated proteins was examined by western blotting analysis. GAPDH was used as a loading control. Antibodies were purchased: Cullin 1 (sc-11384), Cullin2 (sc-10781), Cullin5 (sc-13014) and Cullin7 (sc-134565) from Santa Cruz Biotech. […]

neddylation of cullin 3 = experiment: Western blotting of neddylated and un-neddylated cullin 3 in THLE2 liver cell line; type: cell-based; settings: THLE2; DI-591 at 10 μM or MLN4924 at 0.3 μM; 5 minutes to 24 hours
Experimental: as §1, §4, §2, §5

DCN1 = DCN1 (Homo sapiens (Human), UniProt Q96GG9); experiment: Competitive FP binding assay
In short: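 FP competition with DCN1 in 100 mM phosphate pH 6.5, 0.02% Tween-20, 2% DMSO, probe 5 nM final. Equilibrated 30 min at room temperature with shaking. DCN1 was His6-tagged (uncleaved), expressed in E. coli Rosetta2 and purified by Ni-NTA and gel filtration.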

[2] = bounds given in μM, read-out: Binding affinity to DCN1 (IC50)
[3] = read-out: Binding affinity to DCN1 (IC50 (nM))

DCN1, sequence (Q96GG9 58-259): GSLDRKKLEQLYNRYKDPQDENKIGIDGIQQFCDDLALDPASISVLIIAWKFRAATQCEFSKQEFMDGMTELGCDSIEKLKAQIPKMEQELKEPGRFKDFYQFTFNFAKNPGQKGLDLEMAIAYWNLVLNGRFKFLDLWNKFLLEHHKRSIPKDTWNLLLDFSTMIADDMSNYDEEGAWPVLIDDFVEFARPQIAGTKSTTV

COC(=O)/C=C/C(=O)OC [Dimethyl fumarate, dimethyl fumarate, reference compound]
accumulation of NRF2 and NQ01 protein (NRF2): stimulates the accumulation
accumulation of NRF2 and NQ01 protein (NRF2; listed as dimethyl fumarate): stimulate the accumulation

CCC(=O)N[C@H](Cc1nc2ccc(C(C)C)cc2s1)C(=O)N[C@@H](CNC(=O)CCN1CCOCC1)C1CCCCC1 [Example 123, (R)—N—((R)-1-cyclohexyl-2-(3-morpholinopropanamido)ethyl)-3-(6-isopropylbenzo[d]thiazol-2-yl)-2-propionamidopropanamide]
mRNA level of NRF2 [1]: no effect
mRNA levels of NQ01 and HO1 (NRF2-regulated genes) [1]: not
protein levels of Cyclin E, BimEL and CDT1 (substrates of Cul-1 and Cul-4A) (Cyclin E, BimEL, CDT1): no effect
accumulation of NRF2 and NQ01 protein (NRF2): not
abundance of NRF2 protein (cullin 3 substrate) (NRF2): no effect

NS(=O)(=O)OC[C@@H]1C[C@@H](n2ccc3c(N[C@H]4CCc5ccccc54)ncnc32)C[C@@H]1O [MLN4924, reference compound]
neddylation of cullin 1 (neddylation of cullin 1): inhibits
protein levels of Cyclin E, BimEL and CDT1 (substrates of Cul-1 and Cul-4A) (Cyclin E, BimEL, CDT1): induces accumulation
abundance of NRF2 protein (cullin 3 substrate) (NRF2): induces accumulation
neddylation of cullin 3 (neddylation of cullin 3): inhibits

CCC(=O)N[C@@H](Cc1ccc2ccccc2c1)C(=O)N[C@@H](CC(F)(F)F)C(=O)N[C@@H](CCCCN)C(=O)NC(c1ccccc1)c1ccccc1 [Example 23]
IC50 (DCN1; [2]): > 1 µM

CCC(=O)N[C@@H](Cc1nc2ccc(C(C)C)cc2s1)C(=O)N[C@H](CNc1ccncn1)C1CCCCC1 [Example 78]
IC50 (DCN1; [3]): 0.189 µM

CCC(=O)N[C@@H](Cc1ccc2ccccc2c1)C(=O)N[C@H](C(=O)N[C@@H](CCCCN)C(=O)NC(c1ccccc1)c1ccccc1)C1CCCCC1 [Example 20]
IC50 (DCN1; [3]): 0.341 µM

CC[C@H](C)[C@H](NC(=O)[C@H](Cc1nc2ccc(C(C)C)cc2s1)NC(C)=O)C(=O)N[C@@H](CCCCN)C(N)=O [Example 6, (S)-2-((2S,3 S)-2-((S)-2-acetamido-3-(6-isopropylbenzo[d]thiazol-2-yl)propanamido)-3-methylpentanamido)-6-aminohexanamide]
IC50 (DCN1; [3]): 0.632 ± 0.029 µM

CCC(=O)N[C@@H](Cc1ccc2ccccc2c1)C(=O)N[C@H](C(=O)N[C@@H](CCCCN(C)C)C(=O)NC(c1ccc(F)cc1)c1ccc(F)cc1)C1CCCC1 [Example 140]
IC50 (DCN1; [3]): 0.483 µM

CC[C@H](C)[C@@H](CN)NC(=O)[C@H](Cc1nc2ccc(C(C)C)cc2s1)NC(=O)NC [Example 52, (S)—N-((2S,3S)-1-amino-3-methylpentan-2-yl)-3-(6-isopropylbenzo[d]thiazol-2-yl)-2-(3-methylureido)propanamide]
IC50 (DCN1; [3]): 0.558 ± 0.125 µM

CCC(=O)N[C@H](Cc1nc2ccc(Cl)cc2s1)C(=O)N[C@@H](C(=O)N[C@H](CCCCN)C(=O)N[C@H]1CCOc2ccccc21)C1CCOCC1 [Example 204]
IC50 (DCN1; [2]): > 10 µM

CCC(=O)N[C@@H](Cc1nc2ccc(C(C)C)cc2s1)C(=O)N[C@H](CNC(=O)C12CCN(CC1)CC2)C1CCCCC1 [Example 64]
IC50 (DCN1; [3]): 0.036 µM

CCC(=O)N[C@@H](Cc1nc2cc(Cl)ccc2o1)C(=O)N[C@H](C(=O)N[C@@H](CCCCN)C(=O)NC(c1ccccc1)c1ccccc1)[C@@H](C)CC [Example 155]
IC50 (DCN1; [3]): 1.2 µM

CCC(=O)N[C@H](Cc1nc2ccc(Cl)cc2s1)C(=O)N[C@H](C(=O)N[C@@H](CCCCN)C(=O)N[C@@H]1CCOc2ccccc21)C1CCOCC1 [Example 199]
IC50 (DCN1; [2]): > 10 µM

CCC(=O)N[C@@H](Cc1nc2ccc(C(C)C)cc2s1)C(=O)N[C@H](C(=O)N[C@@H](CCCCN)C(=O)N[C@@H](CC(C)C)C(N)=O)C1CCNCC1 [Example 288] (Propionyl-[Ala(6-iPr-benzothiazol-2-yl)][Gly(piperidin-4-yl)]KL-NH2)
IC50 (DCN1; [2]): > 10 µM

CCC(=O)N[C@@H](Cc1nc2ccc(C(C)C)cc2s1)C(=O)N[C@H](C(=O)N[C@@H](CCCCN)C(=O)N[C@@H](CC(C)C)C(N)=O)[C@@H](C)CC [Example 273] (Propionyl-[Ala(6-iPr-benzothiazol-2-yl)]IKL-NH2)
IC50 (DCN1; [3]): 0.051 µM

CCC(=O)N[C@@H](Cc1nc(C)n(C(C)C)n1)C(=O)N[C@H](CN)Cc1ccccc1 [DI-533]
IC50 (DCN1; [2]): > 10 µM

CCC(=O)N[C@@H](Cc1nc(C)c(-c2cccc(Cl)c2)s1)C(=O)N[C@H](CN)C1CCCCC1 [Example 107]
IC50 (DCN1; [3]): 0.704 µM

CCC(=O)N[C@@H](Cc1nc2ccc(C)cc2s1)C(=O)N[C@H](C(=O)N[C@@H](CCCCN)C(=O)N[C@@H]1CCOc2ccccc21)C1CCCC1 [Example 175]
IC50 (DCN1; [3]): 0.0906 µM

CC(C)c1ccc2nc(C[C@H](NC(=O)C3CC3)C(=O)N[C@H](CN)C3CCCCC3)sc2c1 [Example 262]
IC50 (DCN1; [3]): 0.155 µM

CCC(=O)N[C@@H](Cc1nc(C)c(-c2ccc(Cl)cc2)s1)C(=O)N[C@H](CN)Cc1ccccc1 [Example 102]
IC50 (DCN1; [3]): 1.28 µM

CCC(=O)N[C@H](CNC(=O)C1(N)CCC(F)(F)CC1)Cc1nc2ccc(C(C)C)cc2s1 [Example 111]
IC50 (DCN1; [2]): > 5 µM

CCC(=O)N[C@@H](Cc1ccc2ccccc2c1)C(=O)N[C@H](C(=O)N[C@@H](CCCCN)C(=O)N[C@@H](c1ccccc1)c1cn(CCN)nn1)C1CCCC1 [Example 161]
IC50 (DCN1; [3]): 0.943 µM

CC[C@H](C)[C@H](NC(=O)[C@H](Cc1nc2ccc(C(C)C)cc2s1)NC(=O)C1CC1)C(=O)N[C@@H](CCCCN)C(=O)N[C@@H](CC(C)C)C(N)=O [Example 274] (Cyclopropanecarbonyl-[Ala(6-iPr-benzothiazol-2-yl)]IKL-NH2)
IC50 (DCN1; [3]): 0.0825 µM

CC[C@H](C)[C@H](NC(=O)[C@@H](N)Cc1ccc2ccccc2c1)C(=O)N[C@@H](CCCCN)C(=O)N[C@@H](CC(C)C)C(N)=O [Example 142] (H-[2Nal]IKL-NH2)
IC50 (DCN1; [2]): > 10 µM

CN(C)CCCC[C@H](NC(=O)[C@@H](NC(=O)[C@@H](N)Cc1nc2ccc(Cl)cc2s1)C1CCCC1)C(=O)N[C@@H]1CCOc2ccccc21 [Example 205]
IC50 (DCN1; [2]): > 10 µM

CC[C@H](C)[C@H](NC(=O)[C@H](Cc1nc2ccc(C(C)C)cc2s1)NC(=O)C(C)C)C(=O)N[C@@H](CCCCN)C(=O)N[C@@H](CC(C)C)C(N)=O [Example 275] (Isobutyryl-[Ala(6-iPr-benzothiazol-2-yl)]IKL-NH2)
IC50 (DCN1; [3]): 0.0778 µM

CCC(=O)N[C@H](CNC(=O)Nc1ccccc1)Cc1nc2ccc(Cl)cc2s1 [Example 258]
IC50 (DCN1; [3]): 3.92 µM
